Values belong to the molecule of their own block, whether it stands above or below them.
Columns and labels:
Conditions in all cases: at 10 µM
[1] = target: Cyclin-dependent kinase 13 (Homo sapiens, UniProt Q14004)
[2] = target: T1, Peripheral plasma membrane protein CASK (Homo sapiens) (UniProt O14936); assay: Selectivity interaction (LanthaScreen Eu Kinase Binding Assay) EUB0001632a CASK
T1 sequence (whole entry): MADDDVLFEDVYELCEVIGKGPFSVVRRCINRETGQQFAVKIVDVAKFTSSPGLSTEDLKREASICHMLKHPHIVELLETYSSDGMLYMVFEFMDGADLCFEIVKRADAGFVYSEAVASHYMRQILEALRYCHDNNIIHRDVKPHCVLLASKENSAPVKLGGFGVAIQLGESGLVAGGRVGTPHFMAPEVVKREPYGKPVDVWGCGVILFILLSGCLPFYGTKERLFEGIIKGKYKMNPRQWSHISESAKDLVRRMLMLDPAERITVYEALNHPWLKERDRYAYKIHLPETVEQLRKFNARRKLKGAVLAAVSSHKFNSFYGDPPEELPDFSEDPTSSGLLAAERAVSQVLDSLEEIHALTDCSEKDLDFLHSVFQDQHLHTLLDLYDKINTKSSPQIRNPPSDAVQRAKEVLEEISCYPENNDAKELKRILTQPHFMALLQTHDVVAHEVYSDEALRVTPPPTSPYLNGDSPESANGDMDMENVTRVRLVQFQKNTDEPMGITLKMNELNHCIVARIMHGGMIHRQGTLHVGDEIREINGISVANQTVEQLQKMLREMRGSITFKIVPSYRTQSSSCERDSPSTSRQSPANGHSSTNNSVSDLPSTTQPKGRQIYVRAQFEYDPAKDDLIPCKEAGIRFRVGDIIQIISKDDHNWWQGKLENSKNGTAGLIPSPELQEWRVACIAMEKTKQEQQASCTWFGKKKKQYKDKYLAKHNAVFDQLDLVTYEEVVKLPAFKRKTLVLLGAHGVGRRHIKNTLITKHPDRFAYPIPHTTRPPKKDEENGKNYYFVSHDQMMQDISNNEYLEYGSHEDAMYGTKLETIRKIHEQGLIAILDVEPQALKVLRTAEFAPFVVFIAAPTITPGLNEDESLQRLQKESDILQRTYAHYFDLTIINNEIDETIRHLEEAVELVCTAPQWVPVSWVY

[3] = target: Macrophage-stimulating protein receptor (Homo sapiens, UniProt Q04912); assay: Selectivity interaction (Kinase panel (Z-LYTE Assay)) EUB0001632a MST1R
[4] = target: Cyclin-dependent kinase 7 (Homo sapiens, UniProt P50613); assay: Selectivity interaction (KinomeScan (DiscoverX)) EUB0000595a CDK7
[5] = target: Dual specificity mitogen-activated protein kinase kinase 1 (Homo sapiens, UniProt Q02750); assay: Selectivity interaction (KinomeScan (DiscoverX)) EUB0000229b MAP2K1
[6] = target: T2, Serine/threonine-protein kinase Nek11 (Homo sapiens) (UniProt Q8NG66); assay: Selectivity interaction (KinomeScan (DiscoverX)) EUB0000655a NEK11
T2 sequence (whole entry): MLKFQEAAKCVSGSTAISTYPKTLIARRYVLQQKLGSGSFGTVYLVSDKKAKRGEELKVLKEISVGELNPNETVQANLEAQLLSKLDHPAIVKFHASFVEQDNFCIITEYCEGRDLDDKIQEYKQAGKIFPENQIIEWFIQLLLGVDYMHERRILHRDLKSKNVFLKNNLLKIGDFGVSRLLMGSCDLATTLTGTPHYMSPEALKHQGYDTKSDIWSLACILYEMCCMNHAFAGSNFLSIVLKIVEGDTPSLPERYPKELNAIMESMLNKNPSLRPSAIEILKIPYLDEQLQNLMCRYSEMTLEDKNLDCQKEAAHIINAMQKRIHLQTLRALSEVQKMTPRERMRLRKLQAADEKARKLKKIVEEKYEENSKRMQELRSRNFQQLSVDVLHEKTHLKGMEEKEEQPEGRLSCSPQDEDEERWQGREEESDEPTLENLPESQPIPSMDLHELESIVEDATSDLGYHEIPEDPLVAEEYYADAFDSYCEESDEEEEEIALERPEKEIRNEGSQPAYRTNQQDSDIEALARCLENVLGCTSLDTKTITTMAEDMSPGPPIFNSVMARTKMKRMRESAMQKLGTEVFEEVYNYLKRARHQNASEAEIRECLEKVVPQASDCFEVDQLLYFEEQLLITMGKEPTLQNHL

[7] = target: T3, Serine/threonine-protein kinase Chk1 (Homo sapiens) (UniProt O14757); assay: Selectivity interaction (KinomeScan (DiscoverX)) EUB0000618a CHEK1
T3 sequence (whole entry): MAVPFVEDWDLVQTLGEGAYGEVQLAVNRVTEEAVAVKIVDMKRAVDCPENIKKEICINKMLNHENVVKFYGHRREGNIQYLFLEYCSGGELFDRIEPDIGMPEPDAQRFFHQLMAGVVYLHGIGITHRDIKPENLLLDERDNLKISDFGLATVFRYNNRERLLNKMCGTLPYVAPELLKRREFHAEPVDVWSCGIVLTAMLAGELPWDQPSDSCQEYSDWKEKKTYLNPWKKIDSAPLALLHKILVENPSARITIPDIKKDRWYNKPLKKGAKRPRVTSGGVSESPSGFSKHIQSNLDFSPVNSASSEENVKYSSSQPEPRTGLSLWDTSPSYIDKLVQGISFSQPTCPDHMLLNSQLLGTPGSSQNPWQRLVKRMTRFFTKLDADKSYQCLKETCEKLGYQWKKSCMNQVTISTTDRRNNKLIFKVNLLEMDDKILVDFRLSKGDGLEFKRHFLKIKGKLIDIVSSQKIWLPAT

Cyclin-dependent kinase 7, sequence (P50613 whole entry): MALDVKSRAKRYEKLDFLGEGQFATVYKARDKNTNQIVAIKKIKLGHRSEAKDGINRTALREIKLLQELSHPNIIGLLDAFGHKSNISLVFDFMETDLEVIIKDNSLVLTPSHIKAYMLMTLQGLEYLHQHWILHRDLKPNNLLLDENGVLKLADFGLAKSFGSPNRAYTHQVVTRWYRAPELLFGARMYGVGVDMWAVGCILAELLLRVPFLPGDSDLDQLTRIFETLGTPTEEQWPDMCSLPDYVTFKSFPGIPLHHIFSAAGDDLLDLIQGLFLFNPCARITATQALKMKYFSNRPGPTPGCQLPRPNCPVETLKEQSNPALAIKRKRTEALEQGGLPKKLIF
Cyclin-dependent kinase 13, sequence (Q14004 whole entry, looked up): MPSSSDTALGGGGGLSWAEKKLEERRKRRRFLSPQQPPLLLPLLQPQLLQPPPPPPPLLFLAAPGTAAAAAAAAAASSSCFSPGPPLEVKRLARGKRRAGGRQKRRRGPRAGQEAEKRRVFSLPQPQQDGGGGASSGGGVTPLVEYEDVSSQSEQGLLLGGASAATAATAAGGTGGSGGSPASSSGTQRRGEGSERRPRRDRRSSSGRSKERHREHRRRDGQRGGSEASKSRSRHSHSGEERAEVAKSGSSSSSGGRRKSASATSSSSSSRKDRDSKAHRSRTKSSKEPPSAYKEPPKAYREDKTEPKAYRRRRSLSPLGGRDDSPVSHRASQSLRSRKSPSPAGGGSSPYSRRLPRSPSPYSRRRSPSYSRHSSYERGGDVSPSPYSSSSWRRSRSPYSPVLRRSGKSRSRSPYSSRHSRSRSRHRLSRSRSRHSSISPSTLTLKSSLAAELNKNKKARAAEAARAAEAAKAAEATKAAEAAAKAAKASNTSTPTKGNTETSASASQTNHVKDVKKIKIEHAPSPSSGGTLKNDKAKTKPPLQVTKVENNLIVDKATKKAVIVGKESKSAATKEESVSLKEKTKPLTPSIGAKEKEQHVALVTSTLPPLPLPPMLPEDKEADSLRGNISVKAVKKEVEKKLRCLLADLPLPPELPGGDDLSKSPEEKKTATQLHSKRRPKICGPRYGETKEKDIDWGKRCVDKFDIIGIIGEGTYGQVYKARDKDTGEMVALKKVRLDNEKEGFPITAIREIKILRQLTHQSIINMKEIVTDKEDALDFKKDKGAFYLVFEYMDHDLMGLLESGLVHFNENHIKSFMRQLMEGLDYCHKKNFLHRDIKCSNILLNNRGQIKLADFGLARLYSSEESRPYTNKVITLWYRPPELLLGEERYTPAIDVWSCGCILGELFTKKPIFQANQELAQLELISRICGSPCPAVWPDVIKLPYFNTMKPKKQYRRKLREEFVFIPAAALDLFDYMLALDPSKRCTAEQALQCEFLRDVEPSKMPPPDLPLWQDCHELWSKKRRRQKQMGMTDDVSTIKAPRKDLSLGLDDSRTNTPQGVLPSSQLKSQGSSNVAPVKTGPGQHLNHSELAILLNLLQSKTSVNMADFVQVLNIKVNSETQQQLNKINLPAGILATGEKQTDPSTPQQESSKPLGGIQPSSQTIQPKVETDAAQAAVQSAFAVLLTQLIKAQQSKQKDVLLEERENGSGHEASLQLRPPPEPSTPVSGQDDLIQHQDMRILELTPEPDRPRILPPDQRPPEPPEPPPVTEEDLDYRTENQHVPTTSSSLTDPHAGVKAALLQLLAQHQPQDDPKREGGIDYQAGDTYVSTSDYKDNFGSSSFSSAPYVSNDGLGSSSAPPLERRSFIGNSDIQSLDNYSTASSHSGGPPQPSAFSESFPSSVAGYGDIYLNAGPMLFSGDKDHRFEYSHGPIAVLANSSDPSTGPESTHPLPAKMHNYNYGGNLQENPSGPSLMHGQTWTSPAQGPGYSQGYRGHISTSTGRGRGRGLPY
Macrophage-stimulating protein receptor, sequence (Q04912 25-304 limits assumed): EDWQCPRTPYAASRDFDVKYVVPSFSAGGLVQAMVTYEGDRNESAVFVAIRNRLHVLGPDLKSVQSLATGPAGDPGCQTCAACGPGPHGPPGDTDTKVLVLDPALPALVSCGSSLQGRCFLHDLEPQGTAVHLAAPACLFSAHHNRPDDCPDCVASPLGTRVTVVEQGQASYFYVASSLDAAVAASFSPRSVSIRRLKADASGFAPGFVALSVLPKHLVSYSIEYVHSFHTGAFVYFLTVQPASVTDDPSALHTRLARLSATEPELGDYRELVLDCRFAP
Macrophage-stimulating protein receptor, sequence (Q04912 310-1400 limits assumed): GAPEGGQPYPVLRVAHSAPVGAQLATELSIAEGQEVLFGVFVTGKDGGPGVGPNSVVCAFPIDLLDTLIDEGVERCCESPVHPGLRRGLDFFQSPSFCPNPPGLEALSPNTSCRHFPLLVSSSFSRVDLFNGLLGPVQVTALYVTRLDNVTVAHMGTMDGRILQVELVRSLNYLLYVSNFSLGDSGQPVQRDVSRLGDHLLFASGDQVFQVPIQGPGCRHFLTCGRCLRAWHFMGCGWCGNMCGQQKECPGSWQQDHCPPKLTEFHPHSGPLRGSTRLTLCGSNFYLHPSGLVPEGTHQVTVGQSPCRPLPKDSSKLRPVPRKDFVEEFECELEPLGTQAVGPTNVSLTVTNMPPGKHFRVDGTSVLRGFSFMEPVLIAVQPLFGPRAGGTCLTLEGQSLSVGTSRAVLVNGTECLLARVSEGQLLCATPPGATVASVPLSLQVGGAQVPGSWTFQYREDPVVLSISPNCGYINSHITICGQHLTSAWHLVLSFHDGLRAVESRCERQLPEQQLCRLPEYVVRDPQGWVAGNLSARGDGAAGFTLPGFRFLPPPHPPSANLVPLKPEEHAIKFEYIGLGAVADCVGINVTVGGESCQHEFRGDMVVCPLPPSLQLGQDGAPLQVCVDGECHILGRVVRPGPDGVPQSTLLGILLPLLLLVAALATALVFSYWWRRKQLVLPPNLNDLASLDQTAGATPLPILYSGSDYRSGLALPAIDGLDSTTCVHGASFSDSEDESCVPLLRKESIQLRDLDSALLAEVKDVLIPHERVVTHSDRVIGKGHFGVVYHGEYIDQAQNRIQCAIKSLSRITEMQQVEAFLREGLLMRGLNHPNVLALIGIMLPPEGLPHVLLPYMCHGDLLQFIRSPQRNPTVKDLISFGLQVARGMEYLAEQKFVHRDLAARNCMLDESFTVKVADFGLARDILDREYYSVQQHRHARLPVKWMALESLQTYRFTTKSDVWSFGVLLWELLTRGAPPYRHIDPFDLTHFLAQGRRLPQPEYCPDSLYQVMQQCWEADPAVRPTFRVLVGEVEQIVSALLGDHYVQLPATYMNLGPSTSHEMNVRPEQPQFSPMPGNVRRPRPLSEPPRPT
Dual specificity mitogen-activated protein kinase kinase 1, sequence (Q02750 whole entry): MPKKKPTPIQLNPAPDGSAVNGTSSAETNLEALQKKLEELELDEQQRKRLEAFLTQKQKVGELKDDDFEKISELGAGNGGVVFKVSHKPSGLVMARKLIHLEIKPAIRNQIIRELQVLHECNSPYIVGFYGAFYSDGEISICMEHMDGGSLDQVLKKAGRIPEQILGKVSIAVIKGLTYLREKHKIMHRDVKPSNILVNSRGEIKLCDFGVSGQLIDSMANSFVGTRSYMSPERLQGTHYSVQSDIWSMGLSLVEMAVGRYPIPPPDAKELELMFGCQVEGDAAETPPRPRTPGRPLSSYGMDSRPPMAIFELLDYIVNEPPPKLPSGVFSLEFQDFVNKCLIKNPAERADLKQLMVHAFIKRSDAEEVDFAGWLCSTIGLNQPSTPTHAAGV

SMILES: Cc1cc([C@@H](C)Nc2ccccc2C(=O)O)c2nc(N3CCOCC3)cc(=O)n2c1 [AZD-6482]
% of control [1]: 88%

% of inhibition [2]: -92.6% | % of control [3]: -2.62%
SMILES: Cn1cc(-n2cnc3c(NCc4nc5cc(Cl)c(Cl)cc5[nH]4)nc(N4CCOCC4)nc32)cn1

SMILES: COCC(=O)NC/C=C/c1ccc2ncnc(Nc3ccc(Oc4ccc(C)nc4)c(C)c3)c2c1 [CP-724714]
% of control [4]: 100%

SMILES: COc1cc(N(C)c2ccnc3ccc(C(F)(F)F)cc23)cc(OC)c1OC
% binding [5]: 68%

SMILES: CN(C)CCOc1ccc(-c2nc(-c3ccncc3)c(-c3ccc4c(c3)CC/C4=N\O)[nH]2)cc1
% of control [6]: 81%

SMILES: O[C@H]1CC[C@H](Nc2ncc3nc(Nc4c(F)cc(F)cc4F)n([C@H]4CCOC4)c3n2)CC1
% of control [7]: 97%
